{
  "source": "patent US20260124221A1",
  "about": "“INJECTABLE PHARMACEUTICAL COMPOSITION FOR TREATMENT OF BREAST CANCER” (KASHIV BIOSCIENCES, LLC, priority 2021, published 2026)",
  "key": {"[1]": {"assay": "Stability of Compound I in solubilised composition", "format": "physicochemical", "text": "Example 15: Stability of Compound I in Solubilised Composition\nExample 16: Stability of Compound I in Solubilised Composition\nExample 17: Stability of Compound I in Solubilised Composition"}, "in vivo": {"assay": "in vivo", "conditions": "male, cynomolgus monkey, im, 28.3 mg/kg", "method": "(§4) Procedure: In this single-dose pharmacokinetics study, four Non-Naïve male Cyno monkeys (Age—2.5-6 years, Weight 2-5 kg) were randomly assigned into two groups to evaluate the pharmacokinetics of Faslodex (1 animal) Vs. Compound I (3 animals) following single intramuscular (IM) administration. The test articles were monitored in plasma for up to 336 h (14 days) following dosing. Faslodex at dose of 25 mg/kg (50 mg/mL fulvestrant strength, 500 mg human equivalent dose) was intramuscularly administrated into monkey at study Day 0. The dosage volume 0.5 mL/kg was equally divided and administered at two sites. Compound I at dose 28.3 mg/kg (25 mg/kg Fulvestrant equivalent) having strength 169.5 mg/mL (150 mg/mL fulvestrant equivalent) was intramuscularly administrated into monkeys at study Day 0. The dosage volume of 0.15 mL/kg was administered on one IM site. Blood samples were collected through cephalic or saphenous vein at 0 (Pre-dose), 0.25, 1, 2, 4, 8, 12, 24, 48, 72, 96, 120, 144, 168, 192, 216, 240, 264, 288, 312, and 336 hours. Plasma concentrations of Compound I and fulvestrant were determined using LC/MS/MS to construct semi-logarithmic plasma concentration-time curves. Pharmacokinetic analysis was performed using non-compartmental model."}, "[2]": {"assay": "Pharmacokinetics after single intramuscular administration in female SD rats (Example 18)", "format": "in vivo", "conditions": "Sprague-Dawley, rat, plasma, im, 59 mg/kg, Compound I 100 mg/mL, mean ± SD; for AUC(0-t): read-out: AUClast of Compound I in plasma", "protocol": "The objective of the study was to evaluate single site Vs. two site IM injection of compound I and it impact on pharmacokinetic exposure in female rats. Study was performed in female SD rats with n=6 animals per group. Faslodex 52 mg/kg (human equivalent dose) was administrated at two IM sites by dividing dose volume to half. In similar manner, 59 mg/kg (100 mg/mL compound I concentration) (52 mg/kg Fulvestrant equivalent) was administered as single injection (one IM site) or two IM injection by dividing dose volume in half. […] At each time point, −0.3 mL blood was collected in tubes containing Li-heparin as anti-coagulant. For plasma separation, blood was centrifuges at 5000 rpm for 10 minutes at 4° C. and collected plasma was stored at −80° C. until further analysis.\nBioanalysis in plasma samples was performed using fit-for-purpose LC-MS/MS method for the quantification Fulvestrant and Compound I. Linearity range for Fulvestrant and Compound I analytes were 2 to 2000 ng/mL. The bioanalytical summary for Fulvestrant concentration in all three groups is shown in table 1 and graphical representation is shown in FIG. 1 Concentration of Compound I is shown in table 2 and graphical representation is shown in FIG. 2. The plasma pharmacokinetic parameters for Fulvestrant and Compound I were calculated using standard non-compartmental analysis (Phoenix® software, version 8.1, Pharsight Corporation, Mountain View, California 94040/USA) linear trapezoidal method with linear interpolation."}, "[3]": {"assay": "Pharmacokinetic study in male cynomolgus monkey (Example 25)", "conditions": "male cynomolgus monkeys; Compound I 28.3 mg/kg IM, 169.5 mg/mL, one site", "method": "as §4"}, "[4]": {"assay": "Pharmacokinetic study in female Beagle dog, 169.5 mg/mL composition (Example 24)", "format": "in vivo", "conditions": "female Beagle dogs, Compound I 169.5 mg/mL, 17 mg/kg IM, two sites", "protocol": "A total of 2 female beagle dogs were used in this study.\n(§1) All dogs were administered intramuscularly at the gluteal region.\n(§2) Dose volume was equally divided and administered to two IM sites.\n(§3) At each time point, −0.5 mL of blood was withdrawn and transferred into a pre-labeled K2EDTA coated vacutainer tubes and mixed gently by inverting the tube to facilitate mixing of anticoagulant with the blood. Blood samples were kept on gel packs until centrifugation. The collected blood samples were centrifuged at 5000 rpm for 5 min at 4° C. Plasma was separated after centrifugation. All plasma samples were transferred into pre-labeled (Animal ID No., Time point, Study No., and Group) tubes and stored at −70±10° C. until analysis.\nBioanalysis of plasma samples was performed using fit-for-purpose LC-MS/MS method for the quantification of fulvestrant and Compound I.\nLinearity range for Fulvestrant and Compound I analytes were 1 to 1000 ng/mL. The plasmapharmacokinetic parameters for Fulvestrant and Compound I were calculated using standard non-compartmental analysis (Phoenix® software, version 8.3, Pharsight Corporation, Mountain View, California 94040/USA) linear trapezoidal method with linear interpolation."}, "[5]": {"assay": "Pharmacokinetics after single intramuscular administration in female Beagle dogs (Example 19)", "format": "in vivo", "conditions": "17 mg/kg IM, mean ± SD; for Cmax / Tmax / AUC(0-inf) / AUC(0-t): female, beagle, dog, plasma, im, 17 mg/kg; for AUC(0-inf): read-out: AUCinf—obs of Compound I in plasma; for AUC(0-t): read-out: AUClast of Compound I in plasma", "protocol": "A total of 9 female Beagle dogs were used in this study. The study was performed as a parallel design study.\nas §1, §2\nas §3, with “a pre-labelled” for “a pre-labeled”\nBioanalysis in plasma samples was performed using fit-for-purpose LC-MS/MS method for the quantification of—Group 1—Fulvestrant • Group 2—Fulvestrant and Compound I • Group 3—Fulvestrant and Compound I\nLinearity range for Fulvestrant and Compound I analytes were 1 to 1000 ng/mL. The bioanalytical summary for Fulvestrant concentration in all three groups is shown in table 4 and graphical representation is shown in FIG. 3 Concentration of pro-drug Compound I is shown in table 5 and graphical representation is shown in FIG. 4. The plasma pharmacokinetic parameters for Fulvestrant and Compound I were calculated using standard non-compartmental analysis (Phoenix® software, version 8.3, Pharsight Corporation, Mountain View, California 94040/USA) linear trapezoidal method with linear interpolation. Ratio of fulvestrant obtained after dosing Compound I to that of Faslodex was calculated for parameters Cmax and AUC is reported in Table 6(A) and Table 6(B)."}, "[6]": {"conditions": "composition with 113 mg/ml compound I, Initial"}, "[7]": {"conditions": "composition with 113 mg/ml compound I, Room Temp (45 Days)"}, "[8]": {"conditions": "composition with 169.5 mg/ml compound I, Initial"}, "[9]": {"conditions": "composition with 169.5 mg/ml compound I, Room Temp (30 Days)"}, "[10]": {"conditions": "composition with 226 mg/ml compound I, Initial"}, "[11]": {"conditions": "composition with 226 mg/ml compound I, Room Temp (30 Days)"}},
  "data": [
    {"molecule": "C[C@]12CC[C@@H]3c4ccc(OP(=O)(O)O)cc4C[C@@H](CCC[S+]([O-])CCCC(F)(F)C(F)(F)F)[C@H]3[C@@H]1CC[C@@H]2O", "note": "(stereo partly shown) [Compound I]", "values": [
      {"measurement": "Description", "setting": "[1]; composition with 113 mg/ml compound I (equivalent to 100 mg/ml Fulvestrant), Initial", "value": "Clear colorless to light"},
      {"measurement": "Assay of compound I(%)", "setting": "[1]; [6]", "value": 104.0, "unit": "%"},
      {"measurement": "Visual Inspection", "setting": "[1]; [6]", "value": "Clear solution, No"},
      {"measurement": "Assay of compound I(%)", "setting": "[1]; [7]", "value": 103.3, "unit": "%"},
      {"measurement": "Description", "setting": "[1]; [7]", "value": "Clear colorless to light"},
      {"measurement": "Visual Inspection", "setting": "[1]; [7]", "value": "Clear solution, No"},
      {"measurement": "Description", "setting": "[1]; composition with 169.5 mg/ml compound I (equivalent to 150 mg/ml Fulvestrant), Initial", "value": "Clear colorless to light"},
      {"measurement": "Assay of compound I(%)", "setting": "[1]; [8]", "value": 100.4, "unit": "%"},
      {"measurement": "Visual Inspection", "setting": "[1]; [8]", "value": "Clear solution, No"},
      {"measurement": "Assay of compound I(%)", "setting": "[1]; [9]", "value": 95.30, "unit": "%"},
      {"measurement": "Description", "setting": "[1]; [9]", "value": "Clear colorless to light"},
      {"measurement": "Visual Inspection", "setting": "[1]; [9]", "value": "Clear solution, No"},
      {"measurement": "Assay of compound I(%)", "setting": "[1]; [10]", "value": 101.8, "unit": "%"},
      {"measurement": "Visual Inspection", "setting": "[1]; [10]", "value": "Clear solution, No"},
      {"measurement": "Assay of compound I(%)", "setting": "[1]; [11]", "value": 98, "unit": "%"},
      {"measurement": "Description", "setting": "[1]; [11]", "value": "Clear colorless to light"},
      {"measurement": "Visual Inspection", "setting": "[1]; [11]", "value": "Clear solution, No"},
      {"measurement": "AUC(0-t)", "setting": "in vivo", "value": 17500, "unit": "ng·h/mL"},
      {"measurement": "Cmax", "setting": "[2]; IM single site", "value": "969 ± 349", "unit": "ng/mL"},
      {"measurement": "Tmax", "setting": "[2]; IM single site", "value": "3.17 ± 2.56", "unit": "h"},
      {"measurement": "AUC(0-t)", "setting": "[2]; IM single site", "value": "12400 ± 3430", "unit": "ng·h/mL"},
      {"measurement": "Cmax", "setting": "[2]; IM two sites", "value": "1150 ± 500", "unit": "ng/mL"},
      {"measurement": "Tmax", "setting": "[2]; IM two sites", "value": "1.83 ± 0.41", "unit": "h"},
      {"measurement": "AUC(0-t)", "setting": "[2]; IM two sites", "value": "12800 ± 3120", "unit": "ng·h/mL"},
      {"measurement": "C_max (Compound I in plasma)", "setting": "[3]", "value": 1081, "unit": "ng/mL"},
      {"measurement": "T_max (Compound I in plasma)", "setting": "[3]", "value": 3.42, "unit": "h"},
      {"measurement": "T_½ (Compound I in plasma)", "setting": "[3]", "value": 12.79, "unit": "h"},
      {"measurement": "Tlast (Compound I in plasma)", "setting": "[3]", "value": 152.00, "unit": "h"},
      {"measurement": "Tmax", "setting": "[4]; dog, plasma", "value": 8, "unit": "h"},
      {"measurement": "Cmax", "setting": "[4]; dog, plasma, mean ± SD", "value": "322 ± 14.1", "unit": "ng/mL"},
      {"measurement": "AUC(0-inf)", "setting": "[4]; dog, plasma, mean ± SD, read-out: AUCinf—obs of Compound I in plasma", "value": "5540 ± 1880", "unit": "ng·h/mL"},
      {"measurement": "AUC(0-t)", "setting": "[4]; dog, plasma, mean ± SD, read-out: AUClast of Compound I in plasma", "value": "5510 ± 1880", "unit": "ng·h/mL"},
      {"measurement": "AUC% exp. pol of Compound I", "setting": "[4]; mean ± SD", "value": "0.578 ± 0.303", "unit": "%"},
      {"measurement": "AUC% exp. pol of Compound I", "setting": "[5]; Compound I 50 mg/mL", "value": "0.967 ± 0.255", "unit": "%"},
      {"measurement": "AUC% exp. pol of Compound I", "setting": "[5]; Compound I 100 mg/mL", "value": "0.974 ± 0.886", "unit": "%"},
      {"measurement": "Cmax", "setting": "[5]; Compound I 50 mg/mL", "value": "624 ± 274", "unit": "ng/mL"},
      {"measurement": "Tmax", "setting": "[5]; Compound I 50 mg/mL", "value": "0.83 ± 1.01", "unit": "h"},
      {"measurement": "AUC(0-inf)", "setting": "[5]; Compound I 50 mg/mL", "value": "4260 ± 1060", "unit": "ng·h/mL"},
      {"measurement": "AUC(0-t)", "setting": "[5]; Compound I 50 mg/mL", "value": "4220 ± 1060", "unit": "ng·h/mL"},
      {"measurement": "Cmax", "setting": "[5]; Compound I 100 mg/mL", "value": "272 ± 183", "unit": "ng/mL"},
      {"measurement": "Tmax", "setting": "[5]; Compound I 100 mg/mL", "value": "1.83 ± 1.89", "unit": "h"},
      {"measurement": "AUC(0-inf)", "setting": "[5]; Compound I 100 mg/mL", "value": "4360 ± 1390", "unit": "ng·h/mL"},
      {"measurement": "AUC(0-t)", "setting": "[5]; Compound I 100 mg/mL", "value": "4320 ± 1410", "unit": "ng·h/mL"}
    ]}
  ]
}
